ChEMBL document CHEMBL4811232 (J Med Chem, 2021)

How the values were obtained:
[1] = biological target: T1, Beta-secretase 1 (Homo sapiens, UniProt P56817)
Description: Inhibition of BACE1 in human SH-SY5Y cells expressing wild type betaAPP assessed as reduction in amyloidbeta (1 to 40 residues) level incubated for 24 hrs by HTRF assay

[2] = biological target: T1, Beta-secretase 1; remark: listed apart in the source
[3] = biological target: hERG (KCNH2) (Homo sapiens, UniProt Q12809); test: in vitro; conditions: CHO cells expressing human ERG
Description: Inhibition of human ERG expressed in CHO cells at 5 uM maintained at -80 mV membrane potential by automated patch-clamp assay relative to control

[4] = biological target: Cytochrome P450 2D6 (Homo sapiens, UniProt P10635)
Description: Inhibition of CYP2D6 in human liver microsomes using dextromethorphan as substrate incubated for 15 mins in presence of NADPH by LC/MS/MS analysis

[5] = in vitro; conditions: Sprague-Dawley, rat, liver microsomes
Description: Metabolic stability in Sprague-Dawley rat liver microsomes assessed as parent compound remaining at 0.1 uM measured after 30 mins in presence of NADPH by LC-MS/MS analysis

[6] = in vitro; conditions: human, pooled liver microsomes
Description: Metabolic stability in human pooled liver microsomes assessed as parent compound remaining at 0.1 uM measured after 30 mins in presence of NADPH by LC-MS/MS analysis

[7] = biological target: MDR1 (ABCB1, P-gp) (Homo sapiens, UniProt P08183); test: in vitro; conditions: MDCK-MDR1
Description: Substrate activity at human MDR1 expressed in MDCK cells assessed as efflux ratio

[8] = physchem
Description: Dissociation constant, pKa of the compound by capillary electrophoresis method

[9] = in vitro; conditions: dog, MDCK
Description: Apparent permeability in MDCK cells

[10] = human, microsomes, 1 h, 50 µM
Description: Drug metabolism in human liver microsomes assessed as NADPH-dependent covalent bond binding at 50 umol/L incubated for 1 hr in presence of NADPH by liquid scintillation counter analysis

[11] = human, microsomes, 1 h, 10 µM
Description: Drug metabolism in human liver microsomes assessed as NADPH-dependent covalent bond binding assessed per mg protein at 10 umol/L incubated for 1 hr in presence of NADPH by liquid scintillation counter analysis

[12] = human, microsomes, 1 h, 10 µM; remark: listed apart in the source
Description: Drug metabolism in human liver microsomes assessed as NADPH-independent covalent bond binding assessed per mg protein at 10 umol/L incubated for 1 hr in presence of NADPH by liquid scintillation counter analysis

[13] = human, microsomes, 1 h, 50 µM; remark: listed apart in the source
Description: Drug metabolism in human liver microsomes assessed as total covalent bond binding assessed per mg protein at 50 umol/L incubated for 1 hr in presence of NADPH by liquid scintillation counter analysis

[14] = human, microsomes, 1 h, 10 µM; remark: listed apart in the source
Description: Drug metabolism in human liver microsomes assessed as total covalent bond binding assessed per mg protein at 10 umol/L incubated for 1 hr in presence of NADPH by liquid scintillation counter analysis

[15] = human, microsomes, 1 h, 50 µM; remark: listed apart in the source
Description: Drug metabolism in human liver microsomes assessed as NADPH-independent covalent bond binding assessed per mg protein at 50 umol/L incubated for 1 hr in presence of NADPH by liquid scintillation counter analysis

T1 sequence (P56817 whole entry): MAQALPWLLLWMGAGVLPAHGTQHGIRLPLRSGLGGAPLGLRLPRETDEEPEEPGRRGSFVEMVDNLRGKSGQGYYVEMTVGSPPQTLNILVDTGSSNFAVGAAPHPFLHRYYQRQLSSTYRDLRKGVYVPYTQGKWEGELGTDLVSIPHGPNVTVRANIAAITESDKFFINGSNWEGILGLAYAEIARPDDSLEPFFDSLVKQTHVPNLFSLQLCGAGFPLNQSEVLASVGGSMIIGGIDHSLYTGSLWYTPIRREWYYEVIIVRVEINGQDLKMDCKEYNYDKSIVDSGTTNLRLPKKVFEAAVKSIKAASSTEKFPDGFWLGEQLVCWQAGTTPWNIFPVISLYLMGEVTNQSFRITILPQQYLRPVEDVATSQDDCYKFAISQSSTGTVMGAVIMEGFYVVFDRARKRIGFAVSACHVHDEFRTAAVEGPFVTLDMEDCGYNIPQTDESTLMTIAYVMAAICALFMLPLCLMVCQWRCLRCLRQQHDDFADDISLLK
Chain of hERG (KCNH2) (Q12809 whole entry): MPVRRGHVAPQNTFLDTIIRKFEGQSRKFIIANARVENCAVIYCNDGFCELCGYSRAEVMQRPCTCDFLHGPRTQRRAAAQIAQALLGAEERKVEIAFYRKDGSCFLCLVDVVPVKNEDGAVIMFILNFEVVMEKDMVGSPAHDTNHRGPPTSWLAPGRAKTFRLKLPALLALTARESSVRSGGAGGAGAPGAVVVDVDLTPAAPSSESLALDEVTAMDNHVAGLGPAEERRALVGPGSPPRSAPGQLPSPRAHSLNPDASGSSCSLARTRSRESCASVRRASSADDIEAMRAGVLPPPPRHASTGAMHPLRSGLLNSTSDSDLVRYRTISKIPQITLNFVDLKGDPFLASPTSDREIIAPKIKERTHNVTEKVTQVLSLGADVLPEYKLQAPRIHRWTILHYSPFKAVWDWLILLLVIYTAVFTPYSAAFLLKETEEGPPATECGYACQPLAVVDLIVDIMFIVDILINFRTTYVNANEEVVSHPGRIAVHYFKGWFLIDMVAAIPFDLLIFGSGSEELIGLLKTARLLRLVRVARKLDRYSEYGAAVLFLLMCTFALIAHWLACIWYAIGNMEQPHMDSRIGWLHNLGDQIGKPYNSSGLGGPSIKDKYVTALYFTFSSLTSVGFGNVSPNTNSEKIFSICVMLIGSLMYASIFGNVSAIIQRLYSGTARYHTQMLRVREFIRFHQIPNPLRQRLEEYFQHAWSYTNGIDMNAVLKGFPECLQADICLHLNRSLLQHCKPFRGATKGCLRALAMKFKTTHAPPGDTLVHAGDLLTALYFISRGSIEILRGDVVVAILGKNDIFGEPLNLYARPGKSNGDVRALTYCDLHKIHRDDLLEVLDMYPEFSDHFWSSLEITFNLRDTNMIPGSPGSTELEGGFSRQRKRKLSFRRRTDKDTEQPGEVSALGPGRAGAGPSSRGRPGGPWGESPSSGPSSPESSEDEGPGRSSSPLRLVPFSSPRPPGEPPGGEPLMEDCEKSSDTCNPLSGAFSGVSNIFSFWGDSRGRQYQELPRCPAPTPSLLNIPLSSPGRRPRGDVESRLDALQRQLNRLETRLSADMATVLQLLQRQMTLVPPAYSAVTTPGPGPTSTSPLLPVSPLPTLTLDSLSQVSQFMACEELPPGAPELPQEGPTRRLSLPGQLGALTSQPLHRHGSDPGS
Chain of Cytochrome P450 2D6 (P10635 whole entry): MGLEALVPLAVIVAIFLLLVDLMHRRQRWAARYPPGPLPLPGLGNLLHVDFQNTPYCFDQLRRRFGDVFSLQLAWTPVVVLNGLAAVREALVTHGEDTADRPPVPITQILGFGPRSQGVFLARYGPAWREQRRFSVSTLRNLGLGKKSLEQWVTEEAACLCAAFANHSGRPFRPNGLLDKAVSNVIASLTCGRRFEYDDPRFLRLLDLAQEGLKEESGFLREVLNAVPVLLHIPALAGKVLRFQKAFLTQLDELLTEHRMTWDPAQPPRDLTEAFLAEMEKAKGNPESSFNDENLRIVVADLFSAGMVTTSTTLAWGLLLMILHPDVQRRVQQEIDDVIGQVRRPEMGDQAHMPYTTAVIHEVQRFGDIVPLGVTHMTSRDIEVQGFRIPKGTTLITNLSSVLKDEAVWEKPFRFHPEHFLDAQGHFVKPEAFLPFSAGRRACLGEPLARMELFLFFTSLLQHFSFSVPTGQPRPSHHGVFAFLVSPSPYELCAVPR
Chain of MDR1 (ABCB1, P-gp) (P08183 whole entry): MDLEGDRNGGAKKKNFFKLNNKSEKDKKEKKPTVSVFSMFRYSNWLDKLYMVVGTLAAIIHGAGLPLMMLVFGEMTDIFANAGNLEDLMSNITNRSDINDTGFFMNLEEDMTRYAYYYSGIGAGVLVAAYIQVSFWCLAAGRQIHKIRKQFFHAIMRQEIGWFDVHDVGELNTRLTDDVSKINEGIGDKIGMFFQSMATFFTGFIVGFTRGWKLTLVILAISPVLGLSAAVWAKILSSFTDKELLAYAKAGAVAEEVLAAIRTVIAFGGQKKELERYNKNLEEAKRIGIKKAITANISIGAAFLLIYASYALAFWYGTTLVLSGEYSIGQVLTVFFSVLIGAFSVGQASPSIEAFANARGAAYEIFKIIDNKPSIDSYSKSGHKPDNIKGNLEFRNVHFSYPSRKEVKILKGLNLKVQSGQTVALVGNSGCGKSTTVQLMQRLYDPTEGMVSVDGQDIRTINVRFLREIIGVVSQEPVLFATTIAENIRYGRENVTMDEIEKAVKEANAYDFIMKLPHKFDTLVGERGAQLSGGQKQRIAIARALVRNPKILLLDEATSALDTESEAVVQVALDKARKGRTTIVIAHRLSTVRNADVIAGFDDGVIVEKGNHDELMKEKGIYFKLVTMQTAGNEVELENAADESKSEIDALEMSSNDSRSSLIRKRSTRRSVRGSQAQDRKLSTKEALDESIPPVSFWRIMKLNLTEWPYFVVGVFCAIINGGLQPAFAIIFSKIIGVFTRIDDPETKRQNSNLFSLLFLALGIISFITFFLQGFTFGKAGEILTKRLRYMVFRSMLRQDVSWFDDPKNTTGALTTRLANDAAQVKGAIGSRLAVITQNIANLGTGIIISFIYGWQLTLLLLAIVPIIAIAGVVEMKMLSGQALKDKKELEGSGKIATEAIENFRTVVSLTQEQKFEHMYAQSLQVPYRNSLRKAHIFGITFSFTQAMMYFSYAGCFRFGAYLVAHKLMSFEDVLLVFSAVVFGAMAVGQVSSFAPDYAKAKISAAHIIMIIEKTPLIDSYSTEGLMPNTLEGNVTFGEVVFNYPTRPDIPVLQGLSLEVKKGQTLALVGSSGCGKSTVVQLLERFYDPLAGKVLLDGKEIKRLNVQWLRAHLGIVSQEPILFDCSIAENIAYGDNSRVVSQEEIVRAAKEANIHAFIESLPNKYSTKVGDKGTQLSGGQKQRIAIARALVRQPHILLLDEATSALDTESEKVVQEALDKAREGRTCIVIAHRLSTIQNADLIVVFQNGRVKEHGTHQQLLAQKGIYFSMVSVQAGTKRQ

Row | IC50 [1] | IC50 [2] | IC50 [4] | remaining at 0.5 h, 0.1 µM [5] | remaining at 0.5 h, 0.1 µM [6] | efflux ratio [7] | pKa [8] | Papp [9] | Drug metabolism [10] | Drug metabolism [11] | Drug metabolism [12] | Drug metabolism [13] | Drug metabolism [14] | Drug metabolism [15] | Compound | inhibition at 5 µM [3]
1 | 5.5 nM | 9.6 nM | < 1 µM | 76% | 78% |  |  |  |  |  |  |  |  |  | C[C@@]1(c2cc(NC(=O)c3ccc(Cl)cn3)ccc2F)C=CSC(N)=N1 | 80%
2 | 170 nM | 1450 nM |  |  |  |  |  |  |  |  |  |  |  |  | CC1(c2cccc(C(=O)Nc3ccc(Cl)cn3)c2)CCSC(N)=N1 (stereo not drawn) | 
3 | 1.6 nM | 20 nM | > 20 µM | 87% | 85% | 20 |  |  |  |  |  |  |  |  | C[C@@]1(c2cc(NC(=O)c3ncc(C#N)cc3Cl)ccc2F)C=CSC(N)=N1 | 48%
4 | 4.2 nM | 39 nM | 11 µM | 60% | 97% | 2 |  |  |  |  |  |  |  |  | C[C@@]1(c2cc(NC(=O)c3ccc(F)cn3)ccc2F)C=CSC(N)=N1 | 67%
5 | 4.4 nM | 21 nM | < 1 µM | 88% | 27% | 1.4 |  |  |  |  |  |  |  |  | COc1cnc(C(=O)Nc2ccc(F)c([C@]3(C)C=CSC(N)=N3)c2)cn1 | 29%
6 | 1.1 nM | 9.1 nM |  | 8% | 65% | 5.3 | 7.8 | 38 ×10⁻⁶ cm/s |  |  |  |  |  |  | C=C1C[C@@](C)(c2cc(NC(=O)c3ccc(C#N)cn3)ccc2F)N=C(N)S1 | 78%
7 |  |  |  | 66% | 104% |  | 9 | 12 ×10⁻⁶ cm/s |  |  |  |  |  |  | C[C@@]1(c2cc(NC(=O)c3ccc(C#N)cn3)ccc2F)CCSC(N)=N1 | 91%
8 | 0.62 nM | 16 nM |  | 64% | 86% | 22 | 7.6 | 22 ×10⁻⁶ cm/s |  |  |  |  |  |  | N#Cc1ccc(C(=O)Nc2ccc(F)c([C@]3(CF)CCSC(N)=N3)c2)nc1 | 90%
9 | 0.84 nM | 6.7 nM |  |  |  |  |  |  |  |  |  |  |  |  | C[C@@]1(c2cc(C(=O)Nc3ccc(Cl)cn3)ccc2F)CCSC(N)=N1 | 
10 |  |  |  |  |  |  |  |  | 3446 pmol | 594 pmol | 4 pmol | 3458 pmol | 599 pmol | 12 pmol | CCc1ccc(CCOc2ccc(CC3SC(=O)NC3=O)cc2)nc1 (stereo not drawn) [PIOGLITAZONE] | 
